# Counter-ions that a name gives are not always drawn. Like-named read-outs stand apart in the source and are kept apart here.
# Molecular target: SARS-CoV-2 3CLpro (Severe acute respiratory syndrome coronavirus 2, UniProt P0DTD1)
# Test: biochemical
# Type: biochemical
# Set-up: Replicate_1 / Replicate_2 / mean / mean (LOPAC_screen_w_protease): unit not given here
# Details: for inhibition at 5 µM: 4 h; for mean (LOPAC screen with protease) / Replicate_1 (LOPAC screen with protease) / Replicate_2 (LOPAC screen with protease): primary screen at 5 µM
# [1] = LOPAC1280 primary screen with protease, 5 µM compound, mean of the two replicates
# [2] = LOPAC1280 primary screen with protease, 5 µM compound, replicate 1
# [3] = LOPAC1280 primary screen with protease, 5 µM compound, replicate 2
# [4] = sheet LOPAC_screen_w_protease, LOPAC1280 primary screen at 5 µM, with protease, mean of the two replicates, read-out: mean
# [5] = sheet LOPAC_screen_w_protease, LOPAC1280 primary screen at 5 µM, with protease, replicate 1, read-out: Replicate_1
# [6] = sheet LOPAC_screen_w_protease, LOPAC1280 primary screen at 5 µM, with protease, replicate 2, read-out: Replicate_2
# [7] = sheet LOPAC_screen_w_protease, LOPAC1280 primary screen with protease, 5 µM compound, mean of the two replicates
# [8] = sheet LOPAC_screen_w_protease, LOPAC1280 primary screen with protease, 5 µM compound, replicate 1
# [9] = sheet LOPAC_screen_w_protease, LOPAC1280 primary screen with protease, 5 µM compound, replicate 2
# [10] = LOPAC1280 primary screen with protease, 5 µM compound, mean of two replicates
# [11] = sheet LOPAC_screen_w_protease, primary screen with protease, mean of two replicates
# [12] = sheet LOPAC_screen_w_protease, primary screen with protease, replicate 1
# [13] = sheet LOPAC_screen_w_protease, primary screen with protease, replicate 2
# [14] = sheet LOPAC_screen_w_protease, mean of two replicates
# [15] = sheet LOPAC_screen_w_protease, replicate 1
# [16] = sheet LOPAC_screen_w_protease, replicate 2
# [17] = LOPAC1280 primary screen with protease, 5 µM compound, replicate 1, read-out: Replicate_1 (LOPAC_screen_w_protease)
# [18] = LOPAC1280 primary screen with protease, 5 µM compound, replicate 2, read-out: Replicate_2 (LOPAC_screen_w_protease)
# [19] = sheet LOPAC_screen_w_protease, primary screen with protease, 5 µM, mean of two replicates
# [20] = sheet LOPAC_screen_w_protease, primary screen with protease, 5 µM, replicate 1
# [21] = sheet LOPAC_screen_w_protease, primary screen with protease, 5 µM, replicate 2
# [22] = sheet LOPAC_screen_w_protease, LOPAC1280 primary screen at 5 µM, with protease, replicate 1
# [23] = sheet LOPAC_screen_w_protease, LOPAC1280 primary screen at 5 µM, with protease, replicate 2
smiles,measurement,setting,value
NCCCP(=O)(O)O [3-Aminopropylphosphonic acid],mean (LOPAC_screen_w_protease),[1],1.904
same,Replicate_1 (LOPAC_screen_w_protease),[2],3.261
same,Replicate_2 (LOPAC_screen_w_protease),[3],0.5459
CCC1(C2=NCCN2)Cc2ccccc2O1 (stereo not drawn) [Efaroxan hydrochloride],inhibition at 5 µM,[4],0.692%
same,inhibition at 5 µM,[5],2.34%
same,inhibition at 5 µM,[6],-0.954%
CC(N)Cc1c[nH]c2ccc(O)cc12.O=C(O)/C=C\C(=O)O (stereo not drawn) [alpha-Methyl-5-hydroxytryptamine maleate],mean,[7],6.214
same,Replicate_1,[8],5.086
same,Replicate_2,[9],7.342
Cl.c1ccc2c(N3CCNCC3)cccc2c1 [1-(1-Naphthyl)piperazine hydrochloride],mean (LOPAC_screen_w_protease),[10],1.563
same,Replicate_1 (LOPAC_screen_w_protease),[2],4.027
same,Replicate_2 (LOPAC_screen_w_protease),[3],-0.9014
Nc1nc(Cl)nc2c1ncn2[C@@H]1O[C@H](CO)[C@@H](O)[C@H]1O [2-Chloroadenosine],mean (LOPAC_screen_w_protease),[10],1.409
same,Replicate_1 (LOPAC_screen_w_protease),[2],1.21
same,Replicate_2 (LOPAC_screen_w_protease),[3],1.608
O=C1C=CC(=O)C=C1 [p-Benzoquinone],mean (LOPAC_screen_w_protease),[1],2.118
same,Replicate_1 (LOPAC_screen_w_protease),[2],1.8862
same,Replicate_2 (LOPAC_screen_w_protease),[3],2.35
Cl.c1ccc(CN(CC2=NCCN2)c2ccccc2)cc1 [Antozoline hydrochloride],mean,"sheet LOPAC_screen_w_protease, primary screen of LOPAC1280 at 5 µM with protease, mean of the two replicates",3.208
same,Replicate_1,"sheet LOPAC_screen_w_protease, primary screen of LOPAC1280 at 5 µM with protease, replicate 1",3.9302
same,Replicate_2,"sheet LOPAC_screen_w_protease, primary screen of LOPAC1280 at 5 µM with protease, replicate 2",2.486
Cc1ccc(O)c(N=Nc2ccccc2)n1 [SIB 1757],mean,[11],2.268
same,Replicate_1,[12],3.235
same,Replicate_2,[13],1.301
C[C@](N)(Cc1ccc(O)c(O)c1)C(=O)O [L-alpha-Methyl DOPA],mean (LOPAC screen with protease),[14],7.163
same,Replicate_1 (LOPAC screen with protease),[15],6.315
same,Replicate_2 (LOPAC screen with protease),[16],8.01
CCCCCCCCCCCCCCCCOCC(COCC(F)(F)F)OP(=O)(O)OC (stereo not drawn) [MJ33],Replicate_1,,1.4444
same,Replicate_2,,-0.2702
same,mean,,0.5871
CNCCCC1c2ccccc2C=Cc2ccccc21 [Protriptyline hydrochloride],inhibition at 5 µM,read-out: Replicate_1,1.19%
same,inhibition at 5 µM,read-out: Replicate_2,-0.325%
same,inhibition at 5 µM,read-out: mean,0.431%
CCC(NC(C)C)C(O)c1ccc(O)c(O)c1.CS(=O)(=O)O (stereo not drawn) [Isotharine mesylate],mean (LOPAC screen with protease),[14],8.447
same,Replicate_1 (LOPAC screen with protease),[15],8.4794
same,Replicate_2 (LOPAC screen with protease),[16],8.416
C#C[C@]1(O)CC[C@H]2[C@@H]3CCC4=Cc5oncc5C[C@]4(C)[C@H]3CC[C@@]21C [Danazol],inhibition at 5 µM,"sheet LOPAC_screen_w_protease, primary screen with protease, mean of two replicates, read-out: mean",2.5%
same,inhibition at 5 µM,"sheet LOPAC_screen_w_protease, primary screen with protease, replicate 1, read-out: Replicate_1",4.08%
same,inhibition at 5 µM,"sheet LOPAC_screen_w_protease, primary screen with protease, replicate 2, read-out: Replicate_2",0.911%
CCCN(CCC)CCc1ccc(O)c(O)c1 [Dipropyldopamine hydrobromide],inhibition at 5 µM,[17],3.8%
same,inhibition at 5 µM,[18],0.246%
same,mean (LOPAC_screen_w_protease),[1],2.021
CCN(CC)CC#CCOC(=O)C(O)(c1ccccc1)C1CCCCC1 (stereo not drawn) [Oxybutynin Chloride],inhibition at 5 µM,"sheet LOPAC_screen_w_protease, LOPAC1280 primary screen with protease, 5 µM compound, mean of the two replicates, read-out: mean",4.78%
same,inhibition at 5 µM,"sheet LOPAC_screen_w_protease, LOPAC1280 primary screen with protease, 5 µM compound, replicate 1, read-out: Replicate_1",4.91%
same,inhibition at 5 µM,"sheet LOPAC_screen_w_protease, LOPAC1280 primary screen with protease, 5 µM compound, replicate 2, read-out: Replicate_2",4.65%
C=C(C)[C@H]1CC=C(C(=O)O)CC1 [(-)-Perillic acid],mean,[19],-0.8057
same,Replicate_1,[20],1.127
same,Replicate_2,[21],-2.738
CC(C)C(=O)c1c(C(C)C)nn2ccccc12 [Ibudilast],inhibition at 5 µM,[17],1.64%
same,inhibition at 5 µM,[18],1.76%
same,mean (LOPAC_screen_w_protease),[10],1.697
"CN1C2CCC1CC(NC(=O)c1nn(C)c3ccccc13)C2.O=C(O)/C=C\C(=O)O (stereo not drawn) [LY-278,584 maleate]",mean,[7],4.776
same,Replicate_1,[8],3.942
same,Replicate_2,[9],5.61
CN1CCC(=C2c3ccccc3C=Cc3ccccc32)CC1 [Cyproheptadine hydrochloride],inhibition at 5 µM,[17],4.15%
same,inhibition at 5 µM,[18],0.0977%
same,mean (LOPAC_screen_w_protease),[1],2.126
"CS(=O)(=O)O.Cc1c(C(=O)c2cccc3ccccc23)c2cccc3c2n1[C@H](CN1CCOCC1)CO3 [(R)-(+)-WIN 55,212-2 mesylate]",mean,[19],-0.1611
same,Replicate_1,[20],-0.3938
same,Replicate_2,[21],0.07161
Nc1nc(O)c2ncn(COC(CO)CO)c2n1 [Ganciclovir],inhibition at 5 µM,[4],0.74%
same,inhibition at 5 µM,[5],1%
same,inhibition at 5 µM,[6],0.479%
Br.Cc1cccc(C2CN(C)CCc3c2cc(O)c(O)c3Cl)c1 (stereo not drawn) [SKF 83959 hydrobromide],mean (LOPAC screen with protease),[14],8.7281
same,Replicate_1 (LOPAC screen with protease),[15],9.112
same,Replicate_2 (LOPAC screen with protease),[16],8.344
"O=C(O)[C@H]1CCCN[C@H]1C(=O)O (racemic) [(±)-cis-Piperidine-2,3-dicarboxylic acid]",mean (LOPAC_screen_w_protease),[10],1.527
same,Replicate_1 (LOPAC_screen_w_protease),[2],0.9979
same,Replicate_2 (LOPAC_screen_w_protease),[3],2.056
Cc1nc2c(OCc3ccccc3)cccn2c1CC#N [SCH-28080],mean,[11],2.443
same,Replicate_1,[12],2.6463
same,Replicate_2,[13],2.24
O=C(CCNNC(=O)c1ccncc1)NCc1ccccc1 [Nialamide],inhibition at 5 µM,"sheet LOPAC_screen_w_protease, primary screen of LOPAC1280 at 5 µM with protease, mean of the two replicates, read-out: mean",3.19%
same,inhibition at 5 µM,"sheet LOPAC_screen_w_protease, primary screen of LOPAC1280 at 5 µM with protease, replicate 1, read-out: Replicate_1",4.27%
same,inhibition at 5 µM,"sheet LOPAC_screen_w_protease, primary screen of LOPAC1280 at 5 µM with protease, replicate 2, read-out: Replicate_2",2.12%
COc1[nH]c2ccc(F)cc2c1C(=O)OCC1CCN(CCNS(C)(=O)=O)CC1.NS(=O)(=O)O [GR 125487 sulfamate salt],mean,"sheet LOPAC_screen_w_protease, LOPAC1280 primary screen at 5 µM, with protease, mean of the two replicates",0.6171
same,Replicate_1,[22],2.002
same,Replicate_2,[23],-0.7681
CC1OC(C[N+](C)(C)C)CS1.[I-] (stereo not drawn) [OXA-22 iodide],mean,[7],6.327
same,Replicate_1,[8],7.065
same,Replicate_2,[9],5.588
Nc1nc(SCc2ccc([N+](=O)[O-])cc2)c2ncn([C@@H]3O[C@H](CO)[C@@H](O)[C@H]3O)c2n1 [S-(4-Nitrobenzyl)-6-thioguanosine],mean,[19],-0.2707
same,Replicate_1,[20],0.3471
same,Replicate_2,[21],-0.8885
C[C@@H]1OC[C@H](C[N+](C)(C)C)O1.[I-] [(+)-cis-Dioxolane iodide],mean (LOPAC screen with protease),[14],7.2322
same,Replicate_1 (LOPAC screen with protease),[15],5.683
same,Replicate_2 (LOPAC screen with protease),[16],8.781
CN(C)CCC(c1ccccc1)c1ccccn1 (stereo not drawn) [Pheniramine maleate],inhibition at 5 µM,"sheet LOPAC_screen_w_protease, primary screen with protease, 5 µM, mean of two replicates, read-out: mean",-0.749%
same,inhibition at 5 µM,"sheet LOPAC_screen_w_protease, primary screen with protease, 5 µM, replicate 1, read-out: Replicate_1",0.594%
same,inhibition at 5 µM,"sheet LOPAC_screen_w_protease, primary screen with protease, 5 µM, replicate 2, read-out: Replicate_2",-2.09%
NC(=O)c1cc[n+](CC2=C(C(=O)[O-])N3C(=O)[C@@H](NC(=O)C(c4ccccc4)S(=O)(=O)[O-])[C@H]3SC2)cc1.O.[Na+] (stereo partly drawn) [Cefsulodin sodium salt hydrate],mean,"sheet LOPAC_screen_w_protease, primary screen with protease, compound at 5 µM, mean of two replicates",2.816
same,Replicate_1,"sheet LOPAC_screen_w_protease, primary screen with protease, compound at 5 µM, replicate 1",2.052
same,Replicate_2,"sheet LOPAC_screen_w_protease, primary screen with protease, compound at 5 µM, replicate 2",3.58
"O=C1NC(=O)C(c2ccccc2)(c2ccccc2)N1 [5,5-Diphenylhydantoin]",inhibition at 5 µM,"sheet LOPAC_screen_w_protease, LOPAC1280 at 5 µM, mean of two replicates, read-out: mean",1.1%
same,inhibition at 5 µM,"sheet LOPAC_screen_w_protease, LOPAC1280 at 5 µM, replicate 1, read-out: Replicate_1",1.83%
same,inhibition at 5 µM,"sheet LOPAC_screen_w_protease, LOPAC1280 at 5 µM, replicate 2, read-out: Replicate_2",0.367%
CC(Oc1ccc(Oc2cnc3ccc(Cl)cc3n2)cc1)C(=O)O (stereo not drawn) [XK469],mean,"sheet LOPAC_screen_w_protease, LOPAC1280 at 5 µM, mean of two replicates",1.32
same,Replicate_1,"sheet LOPAC_screen_w_protease, LOPAC1280 at 5 µM, replicate 1",0.4248
same,Replicate_2,"sheet LOPAC_screen_w_protease, LOPAC1280 at 5 µM, replicate 2",2.215
O=C(O)CCC(=O)N1CCC[C@H]1C(=O)O [N-Succinyl-L-proline],mean,"sheet LOPAC_screen_w_protease, LOPAC1280 primary screen at 5 µM, with protease, mean of two replicates",-1.024
same,Replicate_1,[22],1.826
same,Replicate_2,[23],-3.873

# — paper PMC7587356, “High-Throughput Screening for Inhibitors of the SARS-CoV-2 Protease Using a FRET-Biosensor” (Molecules, 2020)
